Patent publication US12678488B2, “Batch management method for improving farrowing rate or number of piglets born alive in swine” (priority 2024, dated 2026)
Marks after values point to notes of the source that are not given here.

Tested on: Landrace x Large White binary sows
Assay: Pregnancy, farrowing rate, litter size and piglet index of gilts in batch farrowing with FTAI (Example 3)
Assay type: in vivo, pigs
Description: The term “farrowing rate”, as used herein, was calculated as the percentage of the number of farrowed sows divided by the number of mated gilts and sows.
For example, in the case of a certain batch of sows, the farrowing rate=the number of farrowing sows/the number of mated gilts and sows×100%.
The term “Piglet Index (PI)”, as used herein, refers to the total number of live piglets born per 100 gilts or sows that have been naturally mated or artificially inseminated. The calculation method is the average number of born alive per litter multiplied by the farrowing rate and then multiplied by the total gilts or sows (100).
The breed of the gilts used in this example was Landrace x Large White binary sows, the reserve sows were randomly divided into the following 4 groups, and the treatment method for each group was as follows:
batch farrowing with FTAI: the sows were fed with an altrenogest oral solution at 20 mg/gilt at the same time every day, for 18 days; PMSG at 1000 IU/gilt was injected intramuscularly 42 h after the last feeding with altrenogest, GnRH at 100 μg/gilt was further injected intramuscularly 80 h after the intramuscular injection of PMSG, a first timed insemination was performed 24 h after the injection of GnRH, and a second timed insemination was performed after 24 h.
Treatment group 1 (batch farrowing with FTAI, with supplementing with 1-[bis(4-cyanophenyl)methyl]-1,2,4-triazole (12 μg/kg·BW, orally once)): The hormone treatment and mating schemes for gilts were the same as those for gilts in the batch farrowing with FTAI. The gilts were administered orally once with 1-[bis(4-cyanophenyl)methyl]-1,2,4-triazole at 12 μg/kg·BW 8 h after the injection of PMSG.
Treatment group 2 (batch farrowing with FTAI, with supplementing with 1-[bis (4-cyanophenyl)methyl]-1,2,4-triazole (12 μg/kg·BW, orally twice)): The hormone treatment and mating schemes for gilts were the same as those for gilts in the batch farrowing with FTAI. The gilts were administered orally once with 1-[bis(4-cyanophenyl)methyl]-1,2,4-triazole at 12 μg/kg·BW 8 h after the injection of PMSG, and then orally once with 1-[bis(4-cyanophenyl)methyl]-1,2,4-triazole at 12 μg/kg·BW after another 24 h.
Treatment group 3 (batch farrowing with FTAI, supplemented with 1-[bis(4-cyanophenyl)methyl]-1,2,4-triazole (20 μg/kg·BW, orally in a single dose)): The hormone treatment and mating schemes for gilts were the same as those for gilts in the batch farrowing with FTAI. The gilts were administered orally once with 1-[bis(4-cyanophenyl)methyl]-1,2,4-triazole at 20 μg/kg·BW 8 h after the injection of PMSG.
The farrowing rate and piglet index of sows in the different treatment groups were calculated as follows:
wherein Piglet Index (PI), a comprehensive index to measure the overall reproductive performance of a sow population at present in production, refers to the number born alive from every 100 gilts or sows, who have undergone natural mating or artificial insemination.

[1] = Example 3, low-dose (treatment groups 1, 2, and 3), compared with batch farrowing with FTAI
[2] = Example 3, treatment group 1 (12 μg/kg·BW orally once), compared with batch farrowing with FTAI
[3] = Example 3, treatment groups 2 and 3
[4] = Example 3 Treatment group 1: 12 μg/kg·BW orally once, gilts
[5] = Example 3 Treatment group 2: 12 μg/kg·BW orally twice, 24 h apart, gilts
[6] = Example 3 Treatment group 3: 20 μg/kg·BW orally in a single dose, gilts

For `N#Cc1ccc(C(c2ccc(C#N)cc2)n2cncn2)cc1` [1-[bis(4-cyanophenyl)methyl]-1,2,4-triazole], the estrus rate (Example 3, 20 μg/kg·BW group compared with 12 μg/kg·BW group) was “slightly lower”, the Piglet index [1] was “significantly increased” and the farrowing rate [1] was “significantly increased”. For the same compound, the pregnancy rate [1] was “significantly increased”, the Healthy litter size [2] was “significantly higher” and the number born alive [2] was “significantly higher”. The Healthy litter size [3] was “increasing trend”, the number born alive [3] was “increasing trend” and the estrus rate (Example 3, treatment groups with different doses, compared with batch farrowing with FTAI) was “no significant difference”. The “Delivery rate (%)” value [4] was 88.00^b %, the “Estrus rate (%)” value [4] was 92.00% and the Healthy litter size [4] was 12.12 ± 0.32^b. The Live litter size [4] was 12.44 ± 0.30^b, the Piglet index [4] was 1094 and the “Pregnancy rate (%)” value [4] was 92.00^b %. The “Stillborn + mummy” value [4] was 1.80 ± 0.22, the “Total number born litter size” value [4] was 13.96 ± 0.30 and the Weak litter [4] was 0.24 ± 0.10. The “Delivery rate (%)” value [5] was 83.33^b %, the “Estrus rate (%)” value [5] was 93.75% and the Healthy litter size [5] was 11.72 ± 0.43^a. The Live litter size [5] was 12.00 ± 0.45^a, the Piglet index [5] was 1000 and the “Pregnancy rate (%)” value [5] was 95.83^b %. For the same compound, the “Stillborn + mummy” value [5] was 1.56 ± 0.16, the “Total number born litter size” value [5] was 13.76 ± 0.62 and the Weak litter [5] was 0.28 ± 0.09. For the same compound, the “Delivery rate (%)” value [6] was 81.48^b %, the “Estrus rate (%)” value [6] was 88.89% and the Healthy litter size [6] was 11.76 ± 0.37^a. For the same compound, the Live litter size [6] was 12.04 ± 0.42^a, the Piglet index [6] was 981 and the “Pregnancy rate (%)” value [6] was 85.19^b %. For the same compound, the “Stillborn + mummy” value [6] was 1.88 ± 0.39, the “Total number born litter size” value [6] was 14.04 ± 0.53 and the Weak litter [6] was 0.40 ± 0.10. For the same compound, the “live piglets (weaned piglets) increased by every 100 gilts” value (per 100 gilts, method of the disclosure versus batch farrowing with FTAI) was 190 live piglets.
